In ChEMBL document CHEMBL1156444, “Structure-based design, synthesis, evaluation, and crystal structures of transition state analogue inhibitors of inosine monophosphate cyclohydrolase” (J Biol Chem, 2007) one finds Ki data, which are given here for five compounds.

The nature of experiment [1]: Inhibition of Escherichia coli GAR transformylase.
Experiment [2] has as its target T1, Trifunctional purine biosynthetic protein adenosine-3 (Homo sapiens, UniProt P22102).
T1 sequence (P22102 whole entry): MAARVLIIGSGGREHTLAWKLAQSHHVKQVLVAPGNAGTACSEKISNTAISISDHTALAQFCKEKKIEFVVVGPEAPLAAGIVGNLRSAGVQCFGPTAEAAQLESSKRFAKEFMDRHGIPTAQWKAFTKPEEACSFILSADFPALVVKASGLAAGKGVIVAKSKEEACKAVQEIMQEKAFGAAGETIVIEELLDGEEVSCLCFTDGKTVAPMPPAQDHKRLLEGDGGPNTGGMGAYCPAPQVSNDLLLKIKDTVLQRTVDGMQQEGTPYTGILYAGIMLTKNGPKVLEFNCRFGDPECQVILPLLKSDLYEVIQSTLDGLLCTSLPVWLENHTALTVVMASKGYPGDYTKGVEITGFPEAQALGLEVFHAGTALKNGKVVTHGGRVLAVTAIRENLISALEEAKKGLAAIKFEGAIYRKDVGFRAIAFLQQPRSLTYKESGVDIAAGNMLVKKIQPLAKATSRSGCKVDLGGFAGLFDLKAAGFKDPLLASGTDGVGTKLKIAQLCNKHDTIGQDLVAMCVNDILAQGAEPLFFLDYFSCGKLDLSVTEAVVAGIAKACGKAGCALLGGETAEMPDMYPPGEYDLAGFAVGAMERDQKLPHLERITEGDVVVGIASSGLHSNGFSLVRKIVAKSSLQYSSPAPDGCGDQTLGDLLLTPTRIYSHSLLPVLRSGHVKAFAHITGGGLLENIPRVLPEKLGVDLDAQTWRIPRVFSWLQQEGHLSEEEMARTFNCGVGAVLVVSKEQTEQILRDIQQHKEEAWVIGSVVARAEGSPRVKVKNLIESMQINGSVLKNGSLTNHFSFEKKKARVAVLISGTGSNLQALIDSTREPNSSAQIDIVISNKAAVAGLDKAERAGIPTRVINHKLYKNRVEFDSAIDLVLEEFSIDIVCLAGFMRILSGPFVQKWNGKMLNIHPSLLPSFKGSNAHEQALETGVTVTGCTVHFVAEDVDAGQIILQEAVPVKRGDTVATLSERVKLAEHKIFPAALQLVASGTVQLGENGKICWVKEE
The experiment in a line: Inhibition of human recombinant GAR transformylase.

Experiment [3] has as its target Bifunctional purine biosynthesis protein ATIC (Homo sapiens, UniProt P31939). The experiment in a line: Inhibition of IMPCH activity of human wild-type ATIC.

Bounds are passed on as bounds.

Chain of Bifunctional purine biosynthesis protein ATIC (P31939 whole entry): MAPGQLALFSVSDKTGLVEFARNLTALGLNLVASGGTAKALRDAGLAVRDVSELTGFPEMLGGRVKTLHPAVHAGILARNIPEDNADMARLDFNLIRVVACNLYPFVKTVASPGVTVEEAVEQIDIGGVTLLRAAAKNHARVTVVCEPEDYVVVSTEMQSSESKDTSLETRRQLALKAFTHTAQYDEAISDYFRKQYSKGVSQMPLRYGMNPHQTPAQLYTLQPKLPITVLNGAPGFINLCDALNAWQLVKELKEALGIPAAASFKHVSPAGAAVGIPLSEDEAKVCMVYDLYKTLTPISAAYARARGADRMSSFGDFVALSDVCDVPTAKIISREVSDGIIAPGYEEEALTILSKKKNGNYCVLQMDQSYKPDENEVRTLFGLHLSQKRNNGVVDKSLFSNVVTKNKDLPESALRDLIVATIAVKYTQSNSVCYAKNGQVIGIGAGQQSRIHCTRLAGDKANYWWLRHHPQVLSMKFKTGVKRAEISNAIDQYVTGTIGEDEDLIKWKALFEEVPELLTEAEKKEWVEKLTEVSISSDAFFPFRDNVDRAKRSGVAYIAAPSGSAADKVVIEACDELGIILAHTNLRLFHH

The Ki is the dissociation constant of the complex between target and ligand, obtained from inhibition or displacement. For `O=C1NS(=O)(=O)Nc2nc[nH]c21`, the Ki in experiment [1] and in experiment [2] was greater than 100 µM in each case.

In the case of `O=C1NS(=O)(=O)Nc2c1ncn2[C@@H]1O[C@H](COP(=O)(O)O)[C@@H](O)[C@H]1O`, the Ki was greater than 100 µM in experiment [1] and 4.8 µM in experiment [2].

In the case of `O=C1NS(=O)(=O)Nc2c1ncn2[C@@H]1O[C@H](CO)[C@@H](O)[C@H]1O`, the Ki in experiment [1] and in experiment [2] was greater than 100 µM throughout.

In turn, `NC(=O)c1ncn([C@@H]2O[C@H](COP(=O)(O)O)[C@@H](O)[C@H]2O)c1NC=O` [FAICAR] gave a Ki in experiment [3] of 0.4 µM.

With `Nc1nc2c(c(=O)[nH]1)C[C@@H](CCc1ccc(C(=O)N[C@@H](CCC(=O)O)C(=O)O)cc1)CN2` [LOMETREXOL], the affinity in experiment [1], expressed as Ki, was 0.1 µM.
